Source: patent EP1914304A1 (priority 1998, dated 1999)
Values joined by “and” are separate entries in the source; they are usually repeats but may differ in a detail not shown here. Equal entries are not always repeated.

Legend:
[1] = test system: E. coli KY895 harboring pMCC (wild-type HSV-1 TK); test: Colony formation on acyclovir or AZT plates (secondary screen); format: cell-based; design: key: (++) indicates that the same number of colonies were observed as compared to control plates; (+) indicates that fewer (<20% those observed with pMCC) and generally smaller (~50°,% smaller diameter) colonies were observed as compared to control plates; (-) indicates that no colonies were observed; conditions: TK selection plates, 1 µg/mL thymidine + 1µg/mL acyclovir or 0.05 µg/mL AZT, 37°C, 16-24 hours
Method: (§1) […]. Mutant cultures were also spread onto duplicate TK selection and LB + carb^50 plates. One set of TK selection plates and LB + carb^50 plates were incubated at 42°C. All other plates were incubated at 37°C. After 16-24 hours the plates were scored.

[2] = test system: E. coli KY895 harboring HSV-1 TK mutant P155A/F161V; test: as above; format: cell-based; design: key: (++) indicates that the same number of colonies were observed as compared to control plates; (+) indicates that fewer (<20% those observed with pMCC) and generally smaller (~50°,% smaller diameter) colonies were observed as compared to control plates; (-) indicates that no colonies were observed; conditions: TK selection plates, 1 µg/mL thymidine + 1µg/mL acyclovir or 0.05 µg/mL AZT, 37°C, 16-24 hours
Method: as §1

[3] = test system: E. coli KY895 harboring HSV-1 TK mutant F161C; test: as above; format: cell-based; design: key: (++) indicates that the same number of colonies were observed as compared to control plates; (+) indicates that fewer (<20% those observed with pMCC) and generally smaller (~50°,% smaller diameter) colonies were observed as compared to control plates; (-) indicates that no colonies were observed; conditions: TK selection plates, 1 µg/mL thymidine + 1µg/mL acyclovir or 0.05 µg/mL AZT, 37°C, 16-24 hours
Method: as §1

[4] = test system: E. coli KY895 harboring HSV-1 TK mutant F161L; test: as above; format: cell-based; design: key: (++) indicates that the same number of colonies were observed as compared to control plates; (+) indicates that fewer (<20% those observed with pMCC) and generally smaller (~50°,% smaller diameter) colonies were observed as compared to control plates; (-) indicates that no colonies were observed; conditions: TK selection plates, 1 µg/mL thymidine + 1µg/mL acyclovir or 0.05 µg/mL AZT, 37°C, 16-24 hours
Method: as §1

[5] = test system: E. coli KY895 harboring HSV-1 TK mutant F1611/R163H; test: as above; format: cell-based; design: key: (++) indicates that the same number of colonies were observed as compared to control plates; (+) indicates that fewer (<20% those observed with pMCC) and generally smaller (~50°,% smaller diameter) colonies were observed as compared to control plates; (-) indicates that no colonies were observed; conditions: TK selection plates, 1 µg/mL thymidine + 1µg/mL acyclovir or 0.05 µg/mL AZT, 37°C, 16-24 hours
Method: as §1

[6] = test system: E. coli KY895 harboring HSV-1 TK mutant F1611; test: as above; format: cell-based; conditions: TK selection plates, 1 µg/mL thymidine + 1µg/mL acyclovir or 0.05 µg/mL AZT, 37°C, 16-24 hours
Method: as §1

[7] = test system: E. coli KY895 harboring HSV-1 TK mutant R163P/H164Q; test: as above; format: cell-based; conditions: TK selection plates, 1 µg/mL thymidine + 1µg/mL acyclovir or 0.05 µg/mL AZT, 37°C, 16-24 hours
Method: as §1

[8] = target: HSV-1 thymidine kinase mutant TKI 208 (Leu-170 to Val), SEQ ID 23 (codons 165-175) (Human herpesvirus 1, UniProt P06478, L170V); format: biochemical, Herpes Simplex Virus Type 1; conditions: Table I; purified enzyme, 34°C, 10 minutes
Method: (§2) Purification of wild-type and mutant TKs was performed by affinity chromatography on CH-Sepharose 4B (Pharmacia) coupled to p-aminophenylthymidine 3'-phosphate. Briefly, crude bacterial extract was passed three times through a 7-mL bed-volume affinity column. The column was then washed sequentially using 30 mL each of buffer A [0.1 M Tris HCl, pH 7.5/5 mM dithiothreitol (DTT)/10% glycerol], buffer B (0.1M Tris-HCl, pH 7.5/0.5 M KCl/5 mM DTT/10% glycerol), and buffer A. TK was eluted using a 60-mL linear gradient of 0-600 µM dT in buffer C (0.3 M Tris HCl, pH 7.4/50 mM KCl/10% glycerol). Active fractions were pooled and dialyzed against three changes each of 2 liters of 50 mM Tris-HCl, pH 7.4/5 mM DTT/10% glycerol. Except in the final dialysis, all the above buffers contained 50 µg/mL of aprotinin and 2 µg/mL each of pepstatin and leupeptin.
(§3) Secondly, the kinetics of AZT phosphorylation by the two mutants was determined. […] (One unit of enzyme is defined as that amount that can phosphorylate 1.0 pmol of dT to TMP in 1 minute under the conditions described above.) Incubation was at 34°C ± 1°C for 10 minutes, and reactions were stopped by adding 1.0 mM unlabeled dT and cooling on ice. Half of the reaction mixtures were pipetted onto a DEAE-cellulose disc (25 mm), dipped in distilled water (1 minute), followed by four washes in absolute ethanol. The amount of radioactivity adsorbed to the disc was determined by scintillation spectroscopy. […] All other components in the reaction mixtures and the incubation conditions were as described above for phosphorylation of AZT.
(§4) All buffers used in the purification of TK contained 5mM DTT, 50 µ/mL aprotinin, 2 µg/mL each of leupeptin and pepstatin and I mM PMSF unless otherwise indicated. […] TK assay was performed on all the fractions and peak TK - fractions were pooled and dialyzed against three changes of 21 of dialysis buffer (50 mM Tris-HCl, pH 7.4, 5 mM DTT, 10% glycerol). In the final dialysis, protease inhibitors were omitted from the buffer and the dialyzed fractions were aliquoted and stored at -70°C. The column was washed thoroughly twice by using the same washing and elution protocols as described above prior to application of each extract preparation.
(§5) Kinetic parameters were determined essentially as described below. […] Incubation was at 34 ± 1°C for 10 minutes. […] Half of the reaction mix was pipetted onto a DEAE-cellulose disc (25 mm) and the disc was dipped in distilled water (1 minute) followed by four washes each in 10 mL of absolute ethanol. The adsorbed products on the disc were counted in a scintillation counter.

[9] = target: HSV-1 thymidine kinase, wild-type (pMCC), SEQ ID 13 (codons 165-175) (Human herpesvirus 1, UniProt P06478); format: biochemical, Herpes Simplex Virus Type 1; conditions: Table I; purified enzyme, 34°C, 10 minutes
Method: as §2, §3, §4, §5

[10] = test system: BHK tk- cells transfected with pREP8D7:dualGFP expressing TK mutant SR11; test: ACV kill curves of transfectant pools; format: cell-based, baby hamster; conditions: Mesocricetus auratus, Table VII
Source text: (§6) The seven mutants were subcloned into the mammalian expression vector, pREP8D7:dualGFP. This vector contains a constitutive metallothionin promoter, which drives the expression of green flourescent protein (GFP), and an RSV LTR promoter, which stimulated expression of the TK mutants. The vector also contains a histidinol resistance gene for selection of transformants. Purified vector DNA of these constructs was used to transfect BHK tk- cells by electroporation. The transfectants were selected by resistance to histidinol and sorted using FACS analysis for GFP expression. Pools of transfectants were then assayed for sensitivity to GCV or ACV over a range of prodrug doses. […] Table VIII illustrates the IC50 values from Rat C6 kill curves with the SR11, SR26, and SR39 mutants.

[11] = test system: BHK tk- cells transfected with pREP8D7:dualGFP expressing TK mutant 75; test: ACV kill curves of transfectant pools; format: cell-based, baby hamster; conditions: Mesocricetus auratus, Table VII
Source text: as §6

Chain of HSV-1 thymidine kinase, wild-type (pMCC), SEQ ID 13 (codons 165-175) (P06478 whole entry, looked up): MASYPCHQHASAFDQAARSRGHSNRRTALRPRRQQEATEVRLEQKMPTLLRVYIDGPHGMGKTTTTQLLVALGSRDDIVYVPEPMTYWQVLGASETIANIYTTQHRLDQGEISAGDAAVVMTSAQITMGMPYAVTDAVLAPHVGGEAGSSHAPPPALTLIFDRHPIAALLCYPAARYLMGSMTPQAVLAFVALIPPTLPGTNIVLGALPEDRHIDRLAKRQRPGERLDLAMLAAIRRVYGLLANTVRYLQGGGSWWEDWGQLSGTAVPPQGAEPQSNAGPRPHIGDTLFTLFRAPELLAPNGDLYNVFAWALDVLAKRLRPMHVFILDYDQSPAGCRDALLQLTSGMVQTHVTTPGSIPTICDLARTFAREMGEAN
Chain of HSV-1 thymidine kinase mutant TKI 208 (Leu-170 to Val), SEQ ID 23 (codons 165-175) (P06478 whole entry L170V, looked up): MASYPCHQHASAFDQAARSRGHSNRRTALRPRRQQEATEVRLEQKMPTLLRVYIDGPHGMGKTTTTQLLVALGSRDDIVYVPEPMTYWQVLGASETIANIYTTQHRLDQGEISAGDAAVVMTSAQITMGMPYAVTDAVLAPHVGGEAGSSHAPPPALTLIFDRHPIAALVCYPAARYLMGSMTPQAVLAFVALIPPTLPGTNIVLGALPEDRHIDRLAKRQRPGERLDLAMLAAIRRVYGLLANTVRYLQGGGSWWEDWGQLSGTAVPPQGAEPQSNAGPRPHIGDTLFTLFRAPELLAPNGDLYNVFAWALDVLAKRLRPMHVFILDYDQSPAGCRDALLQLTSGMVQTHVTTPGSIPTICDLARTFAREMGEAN

SMILES	colony formation on nucleoside analogue plates [1]	colony formation on nucleoside analogue plates [2]	colony formation on nucleoside analogue plates [3]	colony formation on nucleoside analogue plates [4]	colony formation on nucleoside analogue plates [5]	colony formation on nucleoside analogue plates [6]	colony formation on nucleoside analogue plates [7]	Km [8]	kcat [8]	Km [9]	kcat [9]	IC50 [10]	IC50 [11]
Cc1cn([C@H]2C[C@H](N=[N+]=[N-])[C@@H](CO)O2)c(=O)[nH]c1=O [AZT, 3' azido-3' thymidine]	++	+ ((+) indicates that fewer (<20% those observed with pMCC) and generally smaller (~50°,% smaller diameter) colonies were observed as compared to control plates)	-	++	++	+ ((+) indicates that fewer (<20% those observed with pMCC) and generally smaller (~50°,% smaller diameter) colonies were observed as compared to control plates)	+ ((+) indicates that fewer (<20% those observed with pMCC) and generally smaller (~50°,% smaller diameter) colonies were observed as compared to control plates)	4.4 µM	0.03 s⁻¹	8.5 µM and 8.46 µM	0.036 s⁻¹		
Nc1nc2c(ncn2COCCO)c(=O)[nH]1 [acyclovir]	++	++	+ ((+) indicates that fewer (<20% those observed with pMCC) and generally smaller (~50°,% smaller diameter) colonies were observed as compared to control plates)	++	++	+ ((+) indicates that fewer (<20% those observed with pMCC) and generally smaller (~50°,% smaller diameter) colonies were observed as compared to control plates)	+ ((+) indicates that fewer (<20% those observed with pMCC) and generally smaller (~50°,% smaller diameter) colonies were observed as compared to control plates)					25 nM	60 nM
